Patent EP0260606A2, “Medicament for curing neurotic disturbance or disorder comprising sialocylglycerolipid” (MECT CORPORATION, priority 1986, dated 1988)
“And” between values parts separate entries of the source, which are not always exact repeats. Equal entries are not always repeated.

Assays:
[1] = system: neuroblastoma cell Neuro2a; test: Effect on the neuroblastoma cell Neuro2a (formation and growth of axis-cylinder process); type: cell-based; conditions: for Length of Axis-cylinder Process / Number of Axis-cylinder Process: average ± S.E.
Protocol: The nervous cell used in the test was neuroblastoma cell Neuro2a which is readily available and can be cultured in a relatively simple manner.
Neuro2a was floated on a culture medium containing fetal cattle serum (hereinafter referred to as FCS), the culture medium consisting of 90% of Dubecco's Modified Eagle's Medium (hereinafter referred to as MEM) and l0% of FCS and added with l00 U/ml of penicillin G and l00 µg/ml of streptomycin sulfate, and cultured in a carbon dioxide cultivator at 37°C in an air containing 5% of carbon dioxide. The containers used were 60 mm polystyrene dishes, and each of the containers was incubated with l to 2 × l0⁴ cells followed by culturing for 48 hours prior to the test. […] After the lapse of 24 hours and 48 hours, the increase in cells formed with axis-cylinder process, the increase in number of axis-cylinder processes and the elongation of the length of the axis-cylinder process were measured.
The test was conducted while using three dishes for each concentration of each test material.

[2] = system: rat having its nigral depaminergic neuron destroyed; test: Methamphethamine-induced rotational movement after 6-hydroxydopamine lesion and fetal dopaminergic cell transplantation; type: in vivo; conditions: for Average of Rotational Movement of Rats (Average + S.D.): group average, 30 mg/kg; for Number of Rotational Movement of Rats: individual rat, 30 mg/kg every day for two weeks from transplantation, listed as Ganglioside GM1, 30 mg/kg
Description: The nigral dopaminergic neuron of the brain of a rat was chemically destroyed by injecting a very small quantity of 6-hydroxydopamine to cause motor disturbance.
After the lapse of two weeks, a fetal brain dopaminergic cell was transplanted on the Nucleus caudatus of the rat brain to try to remedy the motor disturbance.
The nigral depaminergic neuron at the left side of the brain of a female Wister family rat aged 4-weeks (Body Weight: l00 g) was destroyed by injecting a very small quantity of 6-hydroxydopamine.
After two weeks from the destruction by the administration of the drug, portions of the […] containing dopamin cells (i.e. substantia nigra and the Tegmentum at the abdomen side) were extracted from the fetal rat brain of a fetal rat of l4 to l7 days age, cut finely, and treated with trypsin. Then, the extracted tissues were incubated at 37°C for 30 minutes, and the tissues were subjected to pipetting to form a suspension. 5 µl each of the suspensions were transplanted on two sites of the Nucleus caudatus of the destructed side, the total of l0 µl (containing about l0⁵ cells) being transplanted.
The rotational movements caused by administration of methamphethamine were examined at the time point before 2 weeks of the transplantation (- 2W), at the time point before one week of the transplantation (- lW) and at the time point after two weeks of the transplantation (2W). The number of rotational movements within one minute were counted at l0 minute intervals after six administrations of methamphethamine, and the total number of rotational movements counted for the six times was averaged to find the mean rotational movement. As controls, the numbers of rotational movements of the rats administered, respectively, with a ganglioside mixture and GM₁ ganglioside were counted.

[3] = - 1W (before transplantation and dosing)
[4] = - 2W (before transplantation and dosing)

(NAcNeu(α2-8) NAcNeu(α2-3))-Gal(ßl-3)GalNAc(ßl-4)(NAcNeu(α2-8)NAcNeu(α-2-3))-Gal(ßl-4)Glc(ßl-l) [GQ1b]
Number of Cells Formed with Axis-cylinder Process ([1]; 24 hours, 0.01 µg/ml): 174 | Ratio of Cells Formed with Axis-cylinder Process ([1]; 24 hours, 0.01 µg/ml): 51.8% | Total Number of Cells ([1]; 24 hours, 0.01 µg/ml): 336 | Length of Axis-cylinder Process ([1]; 24 hours, 0.01 µg/ml): 88.5 ± 5.00 µm/cell | Number of Axis-cylinder Process ([1]; 24 hours, 0.01 µg/ml): 1.3 ± 0.05 per cell | Number of Cells Formed with Axis-cylinder Process ([1]; 24 hours, 0.1 µg/ml): 159 | Ratio of Cells Formed with Axis-cylinder Process ([1]; 24 hours, 0.1 µg/ml): 58.0% | Total Number of Cells ([1]; 24 hours, 0.1 µg/ml): 331 | Length of Axis-cylinder Process ([1]; 24 hours, 0.1 µg/ml): 86.0 ± 4.72 µm/cell | Number of Axis-cylinder Process ([1]; 24 hours, 0.1 µg/ml): 1.3 ± 0.04 per cell | Number of Cells Formed with Axis-cylinder Process ([1]; 24 hours, 1 µg/ml): 157 | Ratio of Cells Formed with Axis-cylinder Process ([1]; 24 hours, 1 µg/ml): 51.0% | Total Number of Cells ([1]; 24 hours, 1 µg/ml): 308 | Length of Axis-cylinder Process ([1]; 24 hours, 1 µg/ml): 97.6 ± 4.95 µm/cell | Number of Axis-cylinder Process ([1]; 24 hours, 1 µg/ml): 1.4 ± 0.05 per cell | Number of Cells Formed with Axis-cylinder Process ([1]; 24 hours, 10 µg/ml): 205 | Ratio of Cells Formed with Axis-cylinder Process ([1]; 24 hours, 10 µg/ml): 63.9% | Total Number of Cells ([1]; 24 hours, 10 µg/ml): 321 | Length of Axis-cylinder Process ([1]; 24 hours, 10 µg/ml): 114.9 ± 5.98 µm/cell | Number of Axis-cylinder Process ([1]; 24 hours, 10 µg/ml): 1.3 ± 0.06 per cell | Number of Cells Formed with Axis-cylinder Process ([1]; 24 hours, 100 µg/ml): U.C. | Total Number of Cells ([1]; 24 hours, 100 µg/ml): U.C. | Length of Axis-cylinder Process ([1]; 24 hours, 100 µg/ml): U.C. | Number of Axis-cylinder Process ([1]; 24 hours, 100 µg/ml): U.C. | Number of Cells Formed with Axis-cylinder Process ([1]; 48 hours, 0.01 µg/ml): 158 | Ratio of Cells Formed with Axis-cylinder Process ([1]; 48 hours, 0.01 µg/ml): 42.6% | Total Number of Cells ([1]; 48 hours, 0.01 µg/ml): 371 | Length of Axis-cylinder Process ([1]; 48 hours, 0.01 µg/ml): 100.4 ± 5.76 µm/cell | Number of Axis-cylinder Process ([1]; 48 hours, 0.01 µg/ml): 1.5 ± 0.06 per cell | Number of Cells Formed with Axis-cylinder Process ([1]; 48 hours, 0.1 µg/ml): 153 | Ratio of Cells Formed with Axis-cylinder Process ([1]; 48 hours, 0.1 µg/ml): 44.1% | Total Number of Cells ([1]; 48 hours, 0.1 µg/ml): 347 | Length of Axis-cylinder Process ([1]; 48 hours, 0.1 µg/ml): 90.4 ± 6.06 µm/cell | Number of Axis-cylinder Process ([1]; 48 hours, 0.1 µg/ml): 1.2 ± 0.04 per cell | Number of Cells Formed with Axis-cylinder Process ([1]; 48 hours, 1 µg/ml): 182 | Ratio of Cells Formed with Axis-cylinder Process ([1]; 48 hours, 1 µg/ml): 47.4% | Total Number of Cells ([1]; 48 hours, 1 µg/ml): 384 | Length of Axis-cylinder Process ([1]; 48 hours, 1 µg/ml): 106.5 ± 6.40 µm/cell | Number of Axis-cylinder Process ([1]; 48 hours, 1 µg/ml): 1.3 ± 0.04 per cell | Number of Cells Formed with Axis-cylinder Process ([1]; 48 hours, 10 µg/ml): 214 | Ratio of Cells Formed with Axis-cylinder Process ([1]; 48 hours, 10 µg/ml): 61.8% | Total Number of Cells ([1]; 48 hours, 10 µg/ml): 346 | Length of Axis-cylinder Process ([1]; 48 hours, 10 µg/ml): 122.5 ± 6.99 µm/cell | Number of Axis-cylinder Process ([1]; 48 hours, 10 µg/ml): 1.3 ± 0.04 per cell | Number of Cells Formed with Axis-cylinder Process ([1]; 48 hours, 100 µg/ml): U.C. | Total Number of Cells ([1]; 48 hours, 100 µg/ml): U.C. | Length of Axis-cylinder Process ([1]; 48 hours, 100 µg/ml): U.C. | Number of Axis-cylinder Process ([1]; 48 hours, 100 µg/ml): U.C.

Gal, (ßl-3) GalNAc (ßl-4) NAcNeu(α2-3))Gal(ßl-4)Glc(ßl-l)Ceramide [GM1]
Average of Rotational Movement of Rats (Average + S.D.) ([2]; 2W after transplantation): 7.6+3.6 | Average of Rotational Movement of Rats (Average + S.D.) [2, 3]: 9.8+4.4 | Average of Rotational Movement of Rats (Average + S.D.) [2, 4]: 9.0+4.1 | Number of Rotational Movement of Rats ([2]; 2W after transplantation): 3.7 and 10.9 and 8.2 | Number of Rotational Movement of Rats [2, 3]: 14.8 and 6.9 and 7.6 | Number of Rotational Movement of Rats [2, 4]: 12.5 and 10.1 and 4.5 | Number of Cells Formed with Axis-cylinder Process ([1]; 24 hours, 0.01 µg/ml): 145 | Ratio of Cells Formed with Axis-cylinder Process ([1]; 24 hours, 0.01 µg/ml): 43.4% | Total Number of Cells ([1]; 24 hours, 0.01 µg/ml): 334 | Length of Axis-cylinder Process ([1]; 24 hours, 0.01 µg/ml): 94.9 ± 6.64 µm/cell | Number of Axis-cylinder Process ([1]; 24 hours, 0.01 µg/ml): 1.4 ± 0.05 per cell | Number of Cells Formed with Axis-cylinder Process ([1]; 24 hours, 0.1 µg/ml): 142 | Ratio of Cells Formed with Axis-cylinder Process ([1]; 24 hours, 0.1 µg/ml): 47.8% | Total Number of Cells ([1]; 24 hours, 0.1 µg/ml): 297 | Length of Axis-cylinder Process ([1]; 24 hours, 0.1 µg/ml): 101.1 ± 5.09 µm/cell | Number of Axis-cylinder Process ([1]; 24 hours, 0.1 µg/ml): 1.4 ± 0.06 per cell | Number of Cells Formed with Axis-cylinder Process ([1]; 24 hours, 1 µg/ml): 140 | Ratio of Cells Formed with Axis-cylinder Process ([1]; 24 hours, 1 µg/ml): 42.2% | Total Number of Cells ([1]; 24 hours, 1 µg/ml): 332 | Length of Axis-cylinder Process ([1]; 24 hours, 1 µg/ml): 109.7 ± 6.44 µm/cell | Number of Axis-cylinder Process ([1]; 24 hours, 1 µg/ml): 1.4 ± 0.06 per cell | Number of Cells Formed with Axis-cylinder Process ([1]; 24 hours, 10 µg/ml): 149 | Ratio of Cells Formed with Axis-cylinder Process ([1]; 24 hours, 10 µg/ml): 45.8% | Total Number of Cells ([1]; 24 hours, 10 µg/ml): 325 | Length of Axis-cylinder Process ([1]; 24 hours, 10 µg/ml): 89.3± 4.77 µm/cell | Number of Axis-cylinder Process ([1]; 24 hours, 10 µg/ml): 1.4 ± 0.05 per cell | Number of Cells Formed with Axis-cylinder Process ([1]; 24 hours, 100 µg/ml): 172 | Ratio of Cells Formed with Axis-cylinder Process ([1]; 24 hours, 100 µg/ml): 55.5% | Total Number of Cells ([1]; 24 hours, 100 µg/ml): 310 | Length of Axis-cylinder Process ([1]; 24 hours, 100 µg/ml): 90.5 ± 3.88 µm/cell | Number of Axis-cylinder Process ([1]; 24 hours, 100 µg/ml): 1.8 ± 0.05 per cell | Number of Cells Formed with Axis-cylinder Process ([1]; 48 hours, 0.01 µg/ml): 194 | Ratio of Cells Formed with Axis-cylinder Process ([1]; 48 hours, 0.01 µg/ml): 58.3% | Total Number of Cells ([1]; 48 hours, 0.01 µg/ml): 333 | Length of Axis-cylinder Process ([1]; 48 hours, 0.01 µg/ml): 93.7 ± 5.07 µm/cell | Number of Axis-cylinder Process ([1]; 48 hours, 0.01 µg/ml): 1.4 ± 0.05 per cell | Number of Cells Formed with Axis-cylinder Process ([1]; 48 hours, 0.1 µg/ml): 156 | Ratio of Cells Formed with Axis-cylinder Process ([1]; 48 hours, 0.1 µg/ml): 44.7% | Total Number of Cells ([1]; 48 hours, 0.1 µg/ml): 349 | Length of Axis-cylinder Process ([1]; 48 hours, 0.1 µg/ml): 108.8 ± 5.97 µm/cell | Number of Axis-cylinder Process ([1]; 48 hours, 0.1 µg/ml): 1.4 ± 0.06 per cell | Number of Cells Formed with Axis-cylinder Process ([1]; 48 hours, 1 µg/ml): 211 | Ratio of Cells Formed with Axis-cylinder Process ([1]; 48 hours, 1 µg/ml): 59.9% | Total Number of Cells ([1]; 48 hours, 1 µg/ml): 352 | Length of Axis-cylinder Process ([1]; 48 hours, 1 µg/ml): 109.2 ± 6.09 µm/cell | Number of Axis-cylinder Process ([1]; 48 hours, 1 µg/ml): 1.3 ± 0.04 per cell | Number of Cells Formed with Axis-cylinder Process ([1]; 48 hours, 10 µg/ml): 205 | Ratio of Cells Formed with Axis-cylinder Process ([1]; 48 hours, 10 µg/ml): 62.1% | Total Number of Cells ([1]; 48 hours, 10 µg/ml): 330 | Length of Axis-cylinder Process ([1]; 48 hours, 10 µg/ml): 113.8 ± 5.49 µm/cell | Number of Axis-cylinder Process ([1]; 48 hours, 10 µg/ml): 1.3 ± 0.04 per cell | Number of Cells Formed with Axis-cylinder Process ([1]; 48 hours, 100 µg/ml): 193 | Ratio of Cells Formed with Axis-cylinder Process ([1]; 48 hours, 100 µg/ml): 60.9% | Total Number of Cells ([1]; 48 hours, 100 µg/ml): 317 | Length of Axis-cylinder Process ([1]; 48 hours, 100 µg/ml): 98.9 ± 5.22 µm/cell | Number of Axis-cylinder Process ([1]; 48 hours, 100 µg/ml): 1.5 ± 0.05 per cell
